From the supplement of paper PMC11451515

Tested on: NOMO1
Assay: cell viability relative to DMSO control; higher = less cytotoxic
Details: 48 h
Outline: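 Viability, reported as a per-plate percentage of DMSO wells with cell-free wells as background, came from CellTiter-Glo One luminescence. Reading took place after 48 h at 37°C. Before that, NOMO1 or SEM (500 cells/well) or P12-Ichikawa (1000 cells/well) leukemia cells, adapted for at least four passages in each medium, were seeded in 1536-well plates (5 μl) and pin-dosed with library compounds in DMSO, 47 μM to 0.79 nM over 11 threefold points.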

[1] = HPLM + 10% dialyzed FBS, 0.000781 µM
[2] = HPLM + 10% dialyzed FBS, 0.00234 µM
[3] = HPLM + 10% dialyzed FBS, 0.00702 µM
[4] = HPLM + 10% dialyzed FBS, 0.0211 µM
[5] = HPLM + 10% dialyzed FBS, 0.0632 µM
[6] = HPLM + 10% dialyzed FBS, 0.19 µM
[7] = HPLM + 10% dialyzed FBS, 0.569 µM
[8] = HPLM + 10% dialyzed FBS, 1.71 µM
[9] = HPLM + 10% dialyzed FBS, 5.12 µM
[10] = HPLM + 10% dialyzed FBS, 15.4 µM
[11] = HPLM + 10% dialyzed FBS, 46.1 µM
[12] = RPMI 5 mM glucose + 10% FBS, 0.000781 µM
[13] = RPMI 5 mM glucose + 10% FBS, 0.00234 µM
[14] = RPMI 5 mM glucose + 10% FBS, 0.00702 µM
[15] = RPMI 5 mM glucose + 10% FBS, 0.0211 µM
[16] = RPMI 5 mM glucose + 10% FBS, 0.0632 µM
[17] = RPMI 5 mM glucose + 10% FBS, 0.19 µM
[18] = RPMI 5 mM glucose + 10% FBS, 0.569 µM
[19] = RPMI 5 mM glucose + 10% FBS, 1.71 µM
[20] = RPMI 5 mM glucose + 10% FBS, 5.12 µM
[21] = RPMI 5 mM glucose + 10% FBS, 15.4 µM
[22] = RPMI 5 mM glucose + 10% FBS, 46.1 µM
[23] = RPMI 5 mM glucose + 10% dialyzed FBS, 0.000781 µM
[24] = RPMI 5 mM glucose + 10% dialyzed FBS, 0.00234 µM
[25] = RPMI 5 mM glucose + 10% dialyzed FBS, 0.00702 µM
[26] = RPMI 5 mM glucose + 10% dialyzed FBS, 0.0211 µM
[27] = RPMI 5 mM glucose + 10% dialyzed FBS, 0.0632 µM
[28] = RPMI 5 mM glucose + 10% dialyzed FBS, 0.19 µM
[29] = RPMI 5 mM glucose + 10% dialyzed FBS, 0.569 µM
[30] = RPMI 5 mM glucose + 10% dialyzed FBS, 1.71 µM
[31] = RPMI 5 mM glucose + 10% dialyzed FBS, 5.12 µM
[32] = RPMI 5 mM glucose + 10% dialyzed FBS, 15.4 µM
[33] = RPMI 5 mM glucose + 10% dialyzed FBS, 46.1 µM

Row | SMILES | cell viability [1] [%] | cell viability [2] [%] | cell viability [3] [%] | cell viability [4] [%] | cell viability [5] [%] | cell viability [6] [%] | cell viability [7] [%] | cell viability [8] [%] | cell viability [9] [%] | cell viability [10] [%] | cell viability [11] [%] | cell viability [12] [%] | cell viability [13] [%] | cell viability [14] [%] | cell viability [15] [%] | cell viability [16] [%] | cell viability [17] [%] | cell viability [18] [%] | cell viability [19] [%] | cell viability [20] [%] | cell viability [21] [%] | cell viability [22] [%] | cell viability [23] [%] | cell viability [24] [%] | cell viability [25] [%] | cell viability [26] [%] | cell viability [27] [%] | cell viability [28] [%] | cell viability [29] [%] | cell viability [30] [%] | cell viability [31] [%] | cell viability [32] [%] | cell viability [33] [%]
1 | CC(C)C[C@H](CN)CC(=O)O | 105 | 108 | 122 | 109 | 98.1 | 96.1 | 108 | 117 | 101 | 79.6 | 91.7 | 90.3 | 95.6 | 102 | 97.8 | 87.9 | 89.9 | 99.3 | 93.6 | 91.5 | 90.3 | 83.8 | 97.3 | 100 | 105 | 106 | 95.8 | 97.6 | 99.3 | 89.3 | 99.2 | 92.1 | 90
2 | O=C1c2c(O)cccc2[C@H]([C@@H]2O[C@H](CO)[C@@H](O)[C@H](O)[C@H]2O)c2cc(CO)cc(O)c21 | 87 | 101 | 97.9 | 77 | 110 | 122 | 102 | 102 | 111 | 93.4 | 97.5 | 87.8 | 91.8 | 81 | 80.8 | 94.5 | 79.8 | 80.3 | 83.1 | 83.1 | 85.8 | 84.6 | 84.7 | 80.2 | 106 | 88.3 | 87.6 | 96.6 | 96.3 | 86.6 | 89 | 83.1 | 94.6
3 | COc1nc(-c2ccc3c(c2)OCO3)n(-c2ccc(NC(=O)CSc3ccccc3)cc2)n1 |  |  |  |  |  |  |  |  |  |  |  | 105 | 108 | 114 | 103 | 113 | 106 | 107 | 102 | 116 | 89.1 | 21.2 | 102 | 108 | 110 | 117 | 105 | 106 | 103 | 105 | 97.7 | 98.7 | 23.1
4 | COc1cc2ncnc(-n3nc(-c4ccccn4)nc3N)c2cc1OC | 82.3 | 102 | 111 | 101 | 110 | 93.7 | 95.2 | 112 | 86.3 | 74.8 | 0.936 | 83.5 | 86.2 | 92.7 | 101 | 88.6 | 96.3 | 84.9 | 99.3 | 84.7 | 78 | 1.29 | 82.5 | 89.4 | 93 | 110 | 98.4 | 96.7 | 98.5 | 94.5 | 81.8 | 76.4 | 3.64
5 | CCC[C@@H]1C[C@@H](C(=O)N[C@@H]([C@H]2O[C@H](SC)[C@H](O)[C@@H](O)[C@H]2O)[C@@H](C)O)N(C)C1.Cl | 103 | 121 | 123 | 122 | 125 | 128 | 110 | 100 | 79 | 96 | 68.8 | 129 | 121 | 107 | 111 | 114 | 111 | 124 | 103 | 111 | 124 | 111 | 118 | 112 | 119 | 105 | 119 | 109 | 111 | 108 | 107 | 104 | 98
6 | COc1cc2nccc(Oc3ccc(NC(=O)C4(C(=O)Nc5ccc(F)cc5)CC4)cc3)c2cc1OC | 113 | 114 | 112 | 116 | 94.2 | 101 | 116 | 104 | 93.7 | 69.8 | 32.3 | 95.6 | 124 | 101 | 114 | 103 | 104 | 95.1 | 107 | 96.2 | 102 | 64.8 | 102 | 99.2 | 110 | 107 | 111 | 98.2 | 109 | 98 | 95.5 | 71.7 | 47.1
7 | ClC1=CC=C(CCCOC/2=N/NC(=O)C(=C2NCC3=CN=CC=C3)/Br)C=C1 | 124 | 117 | 150 | 115 | 115 | 118 | 97.9 | 75.4 | 38.8 | 15.9 | 7.76 |  |  |  |  |  |  |  |  |  |  |  | 121 | 120 | 127 | 112 | 111 | 109 | 106 | 106 | 66.2 | 27.8 | 12.9
8 | Cl.c1cnc2cc3c(cc2n1)C1CNCC3C1 | 107 | 109 | 110 | 103 | 129 | 126 | 135 | 124 | 124 | 122 | 92 | 101 | 105 | 113 | 107 | 112 | 110 | 118 | 104 | 111 | 110 | 79.4 | 99.3 | 98.2 | 105 | 114 | 107 | 121 | 116 | 109 | 103 | 108 | 62.8
9 | O=C1Nc2ccccc2/C1=C1\Nc2ccccc2C1=O | 105 | 116 | 112 | 112 | 99.1 | 97.7 | 110 | 96.4 | 112 | 102 | 90.5 | 93 | 87.4 | 97.6 | 103 | 103 | 94.7 | 93.7 | 88.7 | 96.2 | 85.6 | 86.9 | 98.2 | 95.9 | 109 | 100 | 88.1 | 93.9 | 89.4 | 94.3 | 89.4 | 89.1 | 84.9
10 | CCCCCCCCCCCC(CC1OC(=O)C1CCCCCC)OC(=O)C(CC(C)C)NC=O (centres undefined) | 92.9 | 105 | 100 | 109 | 110 | 114 | 118 | 114 | 109 | 98.8 | 13.7 | 93.5 | 104 | 95.3 | 94.9 | 114 | 97.8 | 102 | 97.2 | 100 | 102 | 31 | 92.4 | 102 | 107 | 91.7 | 107 | 102 | 95.1 | 105 | 96.4 | 89.2 | 37.2
11 | O=C(O)[C@H](Cc1c[nH]c2ccccc12)N1C(=O)c2ccccc2C1=O | 96.1 | 107 | 103 | 99.4 | 110 | 91.5 | 90.8 | 103 | 119 | 99.6 | 117 | 89.8 | 83.3 | 97 | 89.1 | 87.9 | 80.8 | 89.3 | 97.1 | 90.4 | 92.3 | 86.1 | 92.5 | 99.1 | 104 | 101 | 98.7 | 94.1 | 100 | 101 | 103 | 99.6 | 83.3
12 | C[C@H]([C@H](O)CCC(C)(C)O)[C@H]1CC[C@@]2(O)C/3=C/C(=O)[C@@H]4C[C@@H](O)[C@@H](O)C[C@]4(C)[C@H]3CC[C@]12C |  |  |  |  |  |  |  |  |  |  |  | 112 | 115 | 118 | 107 | 106 | 112 | 121 | 104 | 119 | 109 | 104 | 122 | 127 | 125 | 137 | 112 | 121 | 123 | 131 | 125 | 131 | 117
13 | C[C@@H]1CC[C@@]2(OC1)O[C@H]3C[C@H]4[C@@H]5C/C=C6/C[C@H](CC[C@]6(C)[C@H]5CC[C@]4(C)[C@H]3[C@@H]2C)O[C@@H]7O[C@H](CO)[C@@H](O[C@@H]8O[C@@H](C)[C@H](O)[C@@H](O)[C@H]8O)[C@H](O)[C@H]7O[C@@H]9O[C@@H](C)[C@H](O)[C@@H](O)[C@H]9O | 108 | 122 | 122 | 127 | 142 | 136 | 141 | 152 | 132 | 124 | 8.71 |  |  |  |  |  |  |  |  |  |  |  |  |  |  |  |  |  |  |  |  |  | 
